The source of these data is patent publication US20220098203A1 (priority 2018, published 2022).

Like-named read-outs stand apart in the source and are kept apart here.

The subject of one assay is HCT116 MTAP-/-. Put plainly: Inhibition of cellular proliferation (Cell Titer Glo), HCT116 MTAP-/-. Type of assay: cell-based, human. Conditions: 4 days, read-out: 4 Day Relative Growth Inhibition (MTAP −/−). In short, it runs like this:
(§1)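 Isogenic HCT116 MTAP+/+ and MTAP−/− cells were plated, treated with MAT2A inhibitor after 24 h, and incubated 4 days at 37 °C. Proliferation was read by CellTiter-Glo ATP luminescence, blank-subtracted and normalized to 0.2% DMSO control.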

For another assay, the system named is HCT116 MTAP+/+. The assay can be described thus: Inhibition of cellular proliferation (Cell Titer Glo), HCT116 MTAP+/+. Conditions: Homo sapiens, HCT-116, 96 h, Table 5a, 4 days, read-out: 4 Day Relative Growth Inhibition (MTAP +/+). It counts as cell-based. The method in brief: as §1
In general terms: In ATP-based viability assays light output follows the ATP content of the culture.

Assay [1] concerns SAM in HCT116 MTAP-deleted cells. The assay can be described thus: Cellular assay of target engagement (SAM), LC-MS/MS. It counts as cell-based, human. Conditions: 72 h, read-out: Cell 72 h SAM Inhibition (MTAP −/−). The method in brief: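 HCT116 cells with MTAP deleted were treated with compound for 72 h at 37°C/5% CO2. After quenching lysis in cold 80% methanol with 1 M acetic acid, SAM was quantified by LC-MS/MS against a d3-SAM internal standard.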

The next assay deals with T1, MAT2A homodimer (Homo sapiens, UniProt P31153).
T1 construct: inferred from the Ni sepharose purification and imidazole elution; made in house; host or cells: SF9 insect cells, recombinant baculovirus (Bac to Bac, pFASTBAC1)
T1 sequence (P31153 whole entry): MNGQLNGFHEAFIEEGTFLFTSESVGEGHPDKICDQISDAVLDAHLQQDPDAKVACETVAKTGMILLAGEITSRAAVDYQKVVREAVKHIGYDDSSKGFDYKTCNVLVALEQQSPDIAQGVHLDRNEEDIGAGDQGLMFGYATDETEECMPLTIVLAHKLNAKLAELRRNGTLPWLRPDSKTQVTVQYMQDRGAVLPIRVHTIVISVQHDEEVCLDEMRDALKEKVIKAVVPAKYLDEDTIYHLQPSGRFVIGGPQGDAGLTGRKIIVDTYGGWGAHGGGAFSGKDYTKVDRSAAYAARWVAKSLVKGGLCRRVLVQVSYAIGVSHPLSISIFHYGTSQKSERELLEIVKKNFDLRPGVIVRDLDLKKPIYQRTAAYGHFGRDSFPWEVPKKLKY
Put plainly: MAT2A biochemical assay (liberated phosphate, PiColorLock Gold). Conditions: Table 5a; MAT2A biochemical assay; read-out: Enzyme Inhibition. In short, it runs like this:
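Baculovirus/Sf9-expressed, Ni-purified MAT2A homodimer preincubated with compound 60 min at 25 °C, then reacted 60 min at 25 °C with substrate mix of 500 μM ATP and 400 μM L-methionine, pH 7.0 (mix, not final levels). Phosphate released with SAM measured by PiColorLock Gold against phosphate standard curve.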

The mark [2] stands for this setting: Homo sapiens, HCT-116, 96 h, Table 5a.
[3] abbreviates: Homo sapiens, HCT-116, Table 5a.
The mark [4] stands for this setting: Table 6, select pairs of compounds.

Take `[2H]C([2H])([2H])Oc1ccc(N2C(=O)N(c3ccc4nn(C)cc4c3)Cc3cnc(NCC(F)F)nc32)cc1` [Example 420, 7-((2,2-difluoroethyl)amino)-1-(4-(methoxy-d3)phenyl)-3-(2-methyl-2H-indazol-5-yl)-3,4-dihydropyrimido[4,5-d]pyrimidin-2(1H)-one]: the IC50 was 0.1 to 1 µM in the assay on HCT116 MTAP-/- (setting [2]), 0.1 to 1 µM with HCT116 MTAP+/+, < 0.1 µM in assay [1] (setting [3]) and < 0.1 µM at MAT2A homodimer.
Take `Cn1cc2cc(N3Cc4ccc(OCC(F)F)nc4N(c4ccc5sncc5c4)C3=O)ccc2n1` [Example 176, 1-(benzo[d]isothiazol-5-yl)-7-(2,2-difluoroethoxy)-3-(2-methyl-2H-indazol-5-yl)-3,4-dihydropyrido[2,3-d]pyrimidin-2(1H)-one]: the IC50 was 0.1 to 1 µM in the assay with HCT116 MTAP-/- (setting [2]), > 1 µM in the assay with HCT116 MTAP+/+, 0.1 to 1 µM in assay [1] (setting [3]) and < 0.1 µM on MAT2A homodimer.
Consider `CCOc1ccc2c(n1)N(c1ccc(C(F)F)nc1)C(=O)N(c1ccc3nn(C)cc3c1)C2` [Example 149, 1-(6-(difluoromethyl)pyridin-3-yl)-7-ethoxy-3-(2-methyl-2H-indazol-5-yl)-3,4-dihydropyrido[2,3-d]pyrimidin-2(1H)-one], for which the IC50 in the assay with HCT116 MTAP-/- (setting [2]) is < 0.1 µM; with HCT116 MTAP+/+, > 1 µM; in assay [1] (setting [3]), 0.1 to 1 µM; at MAT2A homodimer, < 0.1 µM.
For the compound `[2H]C([2H])([2H])Oc1ccc(N2C(=O)N(c3ccc4nn(C)cc4c3)Cc3ccc(OC(C)C(F)F)nc32)cc1` (stereo not shown) [Example 168, 7-((1,1-difluoropropan-2-yl)oxy)-1-(4-methoxy-d3-phenyl)-3-(2-methyl-2H-indazol-5-yl)-3,4-dihydropyrido[2,3-d]pyrimidin-2(1H)-one], the IC50 in the assay on HCT116 MTAP-/- (setting [2]) was < 0.1 µM; in the assay on HCT116 MTAP+/+, > 1 µM; in assay [1] (setting [3]), < 0.1 µM; at MAT2A homodimer it was < 0.1 µM.
As to `[2H]C([2H])([2H])Oc1ccc(N2C(=O)N(c3ccc4nn(CCC)cc4c3)Cc3ccc(OCC(F)F)nc32)cc1` [Example 123, 7-(2,2-difluoroethoxy)-1-(4-methoxy-d3-phenyl)-3-(2-propyl-2H-indazol-5-yl)-3,4-dihydropyrido[2,3-d]pyrimidin-2(1H)-one], the IC50 was 0.1 to 1 µM with HCT116 MTAP-/- (setting [2]), > 1 µM with HCT116 MTAP+/+, < 0.1 µM in assay [1] (setting [3]) and < 0.1 µM on MAT2A homodimer.
Regarding `COc1ccc(N2Cc3ccc(NCC(F)(F)F)nc3N(c3ccc(OC(F)F)cc3)C2=O)cc1` [Example 406, 1-(4-(difluoromethoxy)phenyl)-3-(4-methoxyphenyl)-7-((2,2,2-trifluoroethyl)amino)-3,4-dihydropyrido[2,3-d]pyrimidin-2(1H)-one], the IC50 with HCT116 MTAP-/- (setting [2]) was 0.1 to 1 µM; with HCT116 MTAP+/+, > 1 µM; in assay [1] (setting [3]), 0.1 to 1 µM; at MAT2A homodimer, < 0.1 µM.
As to `CCNc1ccc2c(n1)N(c1ccc(OC(F)F)cc1)C(=O)N(c1ccc3nn(C)cc3c1)C2` [Example 269], the IC50 in the assay on HCT116 MTAP-/- (setting [2]) was 0.1 to 1 µM; in the assay on HCT116 MTAP-/- (setting [4]) it was 0.1 to 1 µM; in the assay on HCT116 MTAP+/+, > 1 µM; in assay [1] (setting [3]) it was 0.1 to 1 µM; in assay [1] (setting [4]), 0.1 to 1 µM; on MAT2A homodimer, < 0.1 µM.
Turning to `[2H]C([2H])([2H])Oc1ccc(N2C(=O)N(c3ccc4nn(CC(F)F)cc4c3)Cc3ccc(OCC(F)F)nc32)cc1` [Example 119, 7-(2,2-difluoroethoxy)-3-(2-(2,2-difluoroethyl)-2H-indazol-5-yl)-1-(4-methoxy-d3-phenyl)-3,4-dihydropyrido[2,3-d]pyrimidin-2(1H)-one], the IC50 was 0.1 to 1 µM in the assay on HCT116 MTAP-/- (setting [2]), > 1 µM in the assay on HCT116 MTAP+/+, < 0.1 µM in assay [1] (setting [3]) and < 0.1 µM at MAT2A homodimer.
Consider `[2H]C([2H])([2H])Oc1ccc(N2C(=O)N(c3ccc4nn(C)cc4c3)Cc3c(C)cc(OCC(F)F)nc32)cc1` [Example 185, 7-(2,2-difluoroethoxy)-1-(4-methoxy-d3-phenyl)-5-methyl-3-(2-methyl-2H-indazol-5-yl)-3,4-dihydropyrido[2,3-d]pyrimidin-2(1H)-one], for which the IC50 in the assay on HCT116 MTAP-/- (setting [2]) is < 0.1 µM; in the assay on HCT116 MTAP+/+ it was 0.1 to 1 µM; in assay [1] (setting [3]), < 0.1 µM; at MAT2A homodimer, < 0.1 µM.
Take `Cn1cnc2ccc(N3Cc4ccc(NCC(F)(F)F)nc4N(c4ccc(OC(F)F)cc4)C3=O)cc21` [Example 271]: the IC50 (in the assay with HCT116 MTAP-/- (setting [2]); in the assay on HCT116 MTAP-/- (setting [4]); in the assay with HCT116 MTAP+/+; in assay [1] (setting [3]); in assay [1] (setting [4]); at MAT2A homodimer) was < 0.1 µM each time.
In the case of `[2H]C([2H])([2H])Oc1ccc(N2C(=O)N(c3ccc4nn(C)cc4c3)Cc3ccc(OC(C)C)nc32)cc1` [Example 167, 7-isopropoxy-1-(4-methoxy-d3-phenyl)-3-(2-methyl-2H-indazol-5-yl)-3,4-dihydropyrido[2,3-d]pyrimidin-2(1H)-one], the IC50 in the assay with HCT116 MTAP-/- (setting [2]) is < 0.1 µM; in the assay on HCT116 MTAP+/+, > 1 µM; in assay [1] (setting [3]), < 0.1 µM; on MAT2A homodimer it was < 0.1 µM.
`Cn1cc2cc(N3Cc4ccc(OCC(F)F)nc4N(c4ccc(Br)cc4)C3=O)ccc2n1` [Example 133, 1-(4-bromophenyl)-7-(2,2-difluoroethoxy)-3-(2-methyl-2H-indazol-5-yl)-3,4-dihydropyrido[2,3-d]pyrimidin-2(1H)-one]: the IC50 was < 0.1 µM in the assay on HCT116 MTAP-/- (setting [2]), > 1 µM with HCT116 MTAP+/+, < 0.1 µM in assay [1] (setting [3]) and < 0.1 µM at MAT2A homodimer.
`CCNc1ncc2c(n1)N(c1ccc(OC(F)F)cc1)C(=O)N(c1ccc3nn(C)cc3c1)C2` [Example 190, 1-(4-(difluoromethoxy)phenyl)-7-(ethylamino)-3-(2-methyl-2H-indazol-5-yl)-3,4-dihydropyrimido[4,5-d]pyrimidin-2(1H)-one]: the IC50 in the assay with HCT116 MTAP-/- (setting [2]) is 0.1 to 1 µM; with HCT116 MTAP-/- (setting [4]) it was 0.1 to 1 µM; with HCT116 MTAP+/+, > 1 µM; in assay [1] (setting [3]), 0.1 to 1 µM; in assay [1] (setting [4]) it was 0.1 to 1 µM; at MAT2A homodimer, < 0.1 µM.
Consider `[2H]C([2H])([2H])Oc1ccc(N2C(=O)N(c3ccc4nn(C([2H])([2H])[2H])cc4c3)Cc3cnc(NCC(F)(F)F)nc32)cc1` [Example 423, 1-(4-(methoxy-d3)phenyl)-3-(2-(methyl-d3)-2H-indazol-5-yl)-7-((2,2,2-trifluoroethyl)amino)-3,4-dihydropyrimido[4,5-d]pyrimidin2(1H)-one], for which the IC50 in the assay with HCT116 MTAP-/- (setting [2]) was < 0.1 µM; in the assay on HCT116 MTAP+/+, > 1 µM; in assay [1] (setting [3]), < 0.1 µM; at MAT2A homodimer it was < 0.1 µM.
`COc1ccc(N2Cc3cnc(NCC(F)(F)F)nc3N(c3ccc(OC)cc3)C2=O)cc1` [Example 255, 1,3-bis(4-methoxyphenyl)-7-((2,2,2-trifluoroethyl)amino)-3,4-dihydropyrimido[4,5-d]pyrimidin-2(1H)-one]: the IC50 with HCT116 MTAP-/- (setting [2]) is 0.1 to 1 µM; in the assay on HCT116 MTAP+/+ it was > 1 µM; in assay [1] (setting [3]), 0.1 to 1 µM; at MAT2A homodimer, < 0.1 µM.
On to `Cc1nc2ccc(N3Cc4cnc(NCC(F)(F)F)nc4N(c4ccc(OC(F)F)cc4)C3=O)cc2n1C` [Example 424], for which the IC50 is 0.1 to 1 µM in the assay with HCT116 MTAP-/- (setting [2]), > 1 µM with HCT116 MTAP+/+, < 0.1 µM in assay [1] (setting [3]) and < 0.1 µM on MAT2A homodimer.
